Earlier results in patent publication US11670410B1, “Systems and methods to automatically administer a psychoactive substance to an airway of a user based on a detected event or condition” (priority 2022, dated 2023).

What was measured:
[1] = galantamine consumed orally
[2] = nose-to-brain device, protocol dose 1 mg
[3] = @ 5 min., protocol dose 1.0 mg
[4] = inhaled after vaporization; protocol dose 10 mcg/Kg

COc1ccc2c3c1O[C@H]1C[C@@H](O)C=C[C@@]31CCN(C)C2 [Galantamine, galantamine]
Tmax [1]: ~1.5 h
PK-Intranasal Tmax [2]: 0.5 to 0.75 h

CC[C@H](C)[C@@H]1NC(=O)[C@H](Cc2ccc(O)cc2)NC(=O)[C@@H](N)CSSC[C@@H](C(=O)N2CCC[C@H]2C(=O)N[C@@H](CC(C)C)C(=O)NCC(N)=O)NC(=O)[C@H](CC(N)=O)NC(=O)[C@H](CCC(N)=O)NC1=O [Oxytocin, oxytocin]
PK-Intranasal olfactory bulb concentration [3]: > 0 @ 5 min.

COC(=O)[C@@H]1C[C@H](OC(C)=O)C(=O)[C@H]2[C@@]1(C)CC[C@H]1C(=O)O[C@H](c3ccoc3)C[C@]21C [Salvinorin A, salvinorin A]
PK-Inhaled Tmax [4]: Tmax = 2 min.
